Molecular target: T1, 15-hydroxy-prostaglandin dehydrogenase (PGDH) (Homo sapiens, UniProt P15428)
T1 construct: cell-free preparations of human placenta (containing PGDH); from tissue; host or cells: human placenta, cell-free preparation
T1 sequence (P15428 1-266): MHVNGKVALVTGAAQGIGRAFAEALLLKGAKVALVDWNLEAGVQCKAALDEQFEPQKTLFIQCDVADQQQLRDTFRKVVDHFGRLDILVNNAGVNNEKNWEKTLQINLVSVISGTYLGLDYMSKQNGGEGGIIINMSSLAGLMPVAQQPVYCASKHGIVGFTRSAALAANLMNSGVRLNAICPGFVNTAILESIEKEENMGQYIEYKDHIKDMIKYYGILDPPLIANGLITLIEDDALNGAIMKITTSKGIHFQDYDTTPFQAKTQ
Assay: Inhibition of 15-Hydroxy Prostaglandin Dehydrogenase (in vitro, cell-free preparations of human placenta, radioactive PGF2 degradation)
Assay type: biochemical
Conditions: 50% inhibition of degradation of radioactive PGF2 vs controls without inhibitor
Procedure: Radioactive prostaglandin F2 (PGF2 ) is incubated with cell-free preparations of human placenta (containing PGDH) as desribed by Hoult and Moore, Brithish Journal of Pharmacology Vol. 61 (1977), p. 615. After a suitable incubation period the prostaglandins are extracted and separated chromatographically. The amount of unchanged PGF2 is then compared with the amount of metabolites. The inhibitory effect is evaluated by measurement of the effect in the presence of different amounts of added inhibitor and determination of the concentration (IC50 ) at which 50% inhibition of degradation has been obtained as compared to controls run without inhibitor additions. Very good inhibitors are considered to be those that inhibit PGDH by 50% at a concentration of 10 μM or less. Good inhibitors are considered to be those that inhibit at a concentration of between 10 and 100 μM. Also where a compound has to be classified as less good this will often be compensated in actual practice by other valuable properties, such as for instance a low toxicity or particularly suitable pharmacokinetic properties.
The Table below sets forth IC50 values for a number of compounds according to the invention. For comparison the Table also gives the IC50 value of 5-phenylazo-2-hydroxybenzeneacetic acid which is a known effective PGDH inhibitor described in EP,-A-No. 21229.

SMILES | IC50 [nM]
O=C(O)Cc1cc(N=Nc2ccccc2)ccc1O [5-phenylazo-2-hydroxybenzeneacetic acid, reference compound] | 12000
Cc1cc(C)cc(C(=O)c2ccc(O)c(CC(=O)O)c2)c1 [Example 3, 5-(3,5-Dimethyl-benzoyl)-2-hydroxy-benzeneacetic acid] | 22000
O=C(O)Cc1cc(C=Cc2ccccc2)ccc1O [Example 4, 2-Hydroxy-5-(2-phenyl-1-ethenyl)-benzeneacetic acid] | 20000
O=C(O)Cc1cc(C(=O)c2ccccc2)cc(Br)c1O [Example 9, 5-Benzoyl-3-bromo-2-hydroxy-benzeneacetic acid] | 42000
O=C(O)Cc1cc(C(=O)Cc2ccccc2)ccc1O [Example 14, 5-(2-Phenylacetyl)-2-hydroxy-benzeneacetic acid] | 56000
O=C(O)Cc1cc(C(=O)C=Cc2ccccc2)ccc1O [Example 16, 5-(3-Phenyl-1-oxo-2-propenyl)-2-hydroxy-benzeneacetic acid] | 12000
O=C(O)Cc1cc(C(=O)c2cccc(C(=O)O)c2)ccc1O [Example 18, 2-Hydroxy-5-(3-carboxybenzoyl)-benzeneacetic acid] | 6000
COC(=O)Cc1cc(C(=O)c2ccc(F)cc2)ccc1O [Example 20, Methyl-5-(4-fluorobenzoyl)-2-hydroxy-benzeneacetate] | 4900
COc1ccc(C=CC(=O)c2ccc(O)c(CC(=O)O)c2)cc1 [Example 30, 5-(3-(4-Methoxyphenyl)-1-oxo-2-propenyl)-2-hydroxybenzeneacetic acid] | 1900

Now those with a lower IC50, led by results:

IC50 [nM] | SMILES
1700 | O=C(O)Cc1cc(C(=O)Cc2ccc(C(=O)O)cc2)ccc1O [Example 15, 2-Hydroxy-5-(2-(4-carboxyphenyl)-acetyl)-benzeneacetic acid]
1400 | O=C(O)Cc1cc(C(=O)c2ccccc2)ccc1O [Example 1, 5-Benzoyl-2-hydroxy-benzeneacetic acid]
1400 | O=C(O)Cc1cc(C(=O)C=Cc2ccc(C(=O)O)cc2)ccc1O [Example 17, 2-Hydroxy-5-(3-(4-carboxyphenyl)-1-oxo-2-propenyl)benzeneacetic acid]
1300 | O=C(O)Cc1cc(C(=O)c2ccc(C(=O)O)cc2)ccc1O [Example 7, 2-Hydroxy-5-(4-carboxybenzoyl)-benzeneacetic acid]
1300 | O=C(O)Cc1cc(C(=O)c2cccc(F)c2)ccc1O [Example 12, 5-(3-Fluorobenzoyl)-2-hydroxy-benzeneacetic acid]
1300 | CC(C)c1ccc(C=CC(=O)c2ccc(O)c(CC(=O)O)c2)cc1 [Example 29, 5-(3-(4-(1-Methyl-ethyl)-phenyl)-1-oxo-2-propenyl)-2-hydroxy-benzeneacetic acid]
740 | N#Cc1ccc(C(=O)c2ccc(O)c(CC(=O)O)c2)cc1 [Example 6, 5-(4-Cyanobenzoyl)-2-hydroxy-benzeneacetic acid]
740 | O=C(O)Cc1cc(C(=O)c2ccccc2F)ccc1O [Example 10, 5-(2-Fluorobenzoyl)-2-hydroxy-benzeneacetic acid]
630 | CC(=O)c1ccc(C(=O)c2ccc(O)c(CC(=O)O)c2)cc1 [Example 32, 5-(4-Acetylbenzoyl)-2-hydroxy-benzeneacetic acid]
600 | O=C(O)Cc1cc(C(=O)c2ccc(Cl)cc2)ccc1O [Example 5, 2-Hydroxy-5-(4-chlorobenzoyl)-benzeneacetic acid]
580 | O=C(O)Cc1cc(C(=O)c2ccc(F)cc2)ccc1O [Example 21, 5-(4-Fluorobenzoyl)-2-hydroxy-benzeneacetic acid]
400 | O=C(O)Cc1cc(C=Cc2ccc(C(=O)O)cc2)ccc1O [Example 33, 2-Hydroxy-5-(2-(4-carboxyphenyl)-1-ethenyl)-benzeneacetic acid]
380 | O=C(O)Cc1cc(C(=O)c2c(F)cccc2F)ccc1O [Example 25, 5-(2,6-Difluorobenzoyl)-2-hydroxy-benzeneacetic acid]
210 | O=C(O)Cc1cc(C(=O)c2ccc(Cl)cc2Cl)ccc1O [Example 11, 5-(2,4-Dichlorobenzoyl)-2-hydroxy-benzeneacetic acid]
